Key:
Test in all cases: Post-emergence test
Assay type in all cases: in vivo
Chenopodium = conditions: Chenopodium, 504 h, greenhouse, 125 g of ai./ha, scored after three weeks, read-out: % damage, Chenopodium
Experimental: (§1) Post-emergence Test Solvent: 5 parts by weight of acetone Emulsifier: 1 part by weight of alkylaryl polyglycol ether To produce a suitable preparation of active compound, 1 part by weight of active compound is mixed with the stated amount of solvent, the stated amount of emulsifier is added and the concentrate is diluted with water to the desired concentration. Test plants which have a height of 5-15 cm are sprayed with the preparation of active compound such that the particular amounts of active compounds desired are applied per unit area. The concentration of the spray liquor is chosen so that the particular amounts of active compound desired are applied in 1000 l of water/ha. After three weeks, the degree of damage to the plants is scored visually in % damage in comparison to the untreated control. The Figures Denote: 0%=no effect (like untreated control) 100%=total destruction

Maize = conditions: greenhouse, scored after three weeks
Experimental: as §1

Setaria = conditions: greenhouse, scored after three weeks; for pest or weed control at 1000 g/ha / % damage, Setaria: 1000 g of ai./ha
Experimental: as §1

Polygonum = conditions: Polygonum, 504 h, greenhouse, 125 g of ai./ha, scored after three weeks, read-out: % damage, Polygonum
Experimental: as §1

Datura = conditions: greenhouse, 125 g of ai./ha, scored after three weeks
Experimental: as §1

Viola = conditions: 504 h, greenhouse, 125 g of ai./ha, scored after three weeks, read-out: % damage, Viola
Experimental: as §1

Alopecurus = conditions: greenhouse, 1000 g of ai./ha, scored after three weeks
Experimental: as §1

Amaranthus = conditions: greenhouse, 1000 g of ai./ha, scored after three weeks; for pest or weed control at 1000 g/ha: Amaranthus, 504 h, read-out: % damage, Amaranthus
Experimental: as §1

Avena fatua = conditions: greenhouse, 1000 g of ai./ha, scored after three weeks
Experimental: as §1

Sinapis = conditions: greenhouse, 1000 g of ai./ha, scored after three weeks
Experimental: as §1

Abutilon = conditions: greenhouse, 1000 g of ai./ha, scored after three weeks
Experimental: as §1

Galium = conditions: greenhouse, 1000 g of ai./ha, scored after three weeks
Experimental: as §1

Xanthium = conditions: greenhouse, 1000 g of ai./ha, scored after three weeks
Experimental: as §1

[1] = Setaria, 504 h, read-out: % damage, Setaria

Structure (SMILES) | pest or weed control at 1000 g/ha (Setaria; [1]) [%] | % damage, Alopecurus (Alopecurus) [%] | pest or weed control at 1000 g/ha (Amaranthus) [%] | % damage, Setaria (Setaria) [%] | % damage, Avena fatua (Avena fatua) [%] | % damage, Sinapis (Sinapis) [%] | % damage, Amaranthus (Amaranthus) [%] | % damage, Abutilon (Abutilon) [%] | % damage, Galium (Galium) [%] | % damage, Xanthium (Xanthium) [%] | also measured
CC(F)c1nc(N)nc(NC(C)c2ccc(Cl)cc2)n1 (stereo not shown) [drawing 105] | – | – | – | – | – | – | – | – | – | – | pest or weed control at 125 g/ha (Chenopodium): 100%; % damage, Maize (Maize; 125 g of ai./ha): 20%; pest or weed control at 125 g/ha (Setaria; Setaria, 504 h, 125 g of ai./ha, read-out: % damage, Setaria): 80%; pest or weed control at 125 g/ha (Polygonum): 100%; % damage, Datura (Datura): 100%; pest or weed control at 125 g/ha (Viola): 100%
CC(Nc1nc(N)nc(Cl)n1)c1ccc(Cl)cc1 (stereo not shown) [drawing 106] | 90 | 80 | 100 | – | – | – | – | – | – | – | % damage, Maize (Maize; 1000 g of ai./ha): 20%
CC(Nc1nc(N)nc(Cl)n1)c1ccc(Cl)cc1 (stereo not shown) [drawing 107] | – | 100 | – | 100 | 100 | 100 | 100 | 100 | – | – | –
CC(Nc1nc(N)nc(Cl)n1)c1ccc(Cl)cc1 (stereo not shown) [drawing 108] | – | 70 | – | 100 | 80 | 100 | 100 | 100 | – | – | –
CC(Nc1nc(N)nc(C(F)(F)F)n1)c1ccc(Cl)cc1 (stereo not shown) [drawing 109] | 100 | 100 | 100 | – | 100 | 100 | – | 100 | – | – | –
CC(Nc1nc(N)nc(C(C)(C)F)n1)c1ccc(Cl)cc1 (stereo not shown) [drawing 110] | 100 | 90 | 100 | – | 95 | 100 | – | 100 | – | – | –
CC(Nc1nc(N)nc(C(F)(F)F)n1)c1ccc(Cl)cc1 (stereo not shown) [drawing 111] | – | – | – | 100 | 70 | 100 | 100 | 100 | 100 | 100 | –
CC(Nc1nc(N)nc(C(C)(C)F)n1)c1ccc(Cl)cc1 (stereo not shown) [drawing 112] | – | – | – | 100 | 100 | 100 | 100 | 100 | 100 | 100 | –
COCc1nc(NC(C)=O)nc(NC(C)c2ccc(SC)cc2)n1 (stereo not shown) [drawing 143] | 100 | – | 100 | – | – | 100 | – | – | – | – | % damage, Maize (Maize; 1000 g of ai./ha): 0%
CCC(Nc1nc(NC(C)=O)nc(C(F)(F)F)n1)c1ccc(Cl)cc1 (stereo not shown) [drawing 144] | 100 | – | 100 | – | – | – | – | 100 | – | 90 | % damage, Maize (Maize; 1000 g of ai./ha): 10%
CC(=O)Nc1nc(NC(C)c2ccc(Cl)cc2)nc(C(Cl)Cl)n1 (stereo not shown) [drawing 148] | 100 | – | 100 | – | 70 | – | – | – | 70 | – | –
COc1ccc(C(C)Nc2nc(NC(C)=O)nc(C(F)(F)F)n2)cc1 (stereo not shown) [drawing 149] | 100 | 100 | 100 | – | – | – | – | 100 | 100 | 100 | –
